# Values joined by “and” are separate entries in the source; they are usually repeats but may differ in a detail not shown here. Equal entries are not always repeated. “Also recorded” adds a separate entry of the source.
# Experiments:
# [1] = target: T1, hTPC1 (Homo sapiens, UniProt Q9ULQ1); experiment: Whole-endolysosome recordings of ITPC1; assay type: biochemical
# T1 construct: expressed in transfected cells; host or cells: Cos1
# Protocol: It was therefore of interest to explore whether TCAs/LyNa-VAs could also act on TPC1. To investigate this, we used two different voltage paradigms. […] Second, we used a tail current paradigm to measure the amplitude of the peak inward current at −120 mV following prolonged steps to various potentials (Figure 4E).
# Figure 4. […] HP = 0 mV. […] Dotted lines in A indicate where the currents were measured. […] Data are presented as Mean ± S.E.M (n = 3 patches). […] (G) Normalized I-V plots of basal voltage-dependent currents in WT TPC1- and TPC1^R540I-transfected cells. […] Figure 4—source data 1. […] Figure 4—figure supplement 1. […] (A) A voltage protocol that elicited ITPC1 tail currents as shown in Figure 4E (from −140 to 100 mV with a ∆V = 20 mV, 1 s with a 10 s inter-step interval). Arrows indicate where tail currents were measured. (B) A voltage protocol that elicited ITPC1 tail currents as shown in C. […] HP = 0 mV. […] (A) Basal whole-endolysosome ITPC1 (left) or ITPC1-R540I (right) was elicited by voltage steps (−140 to +100 mV with ΔV = 20 mV) in the absence of PI(3,5)P2 in TPC1-transfected Cos1 cells ([She et al., 2019]). Tail currents were elicited at −120 mV. (B) The effects of PI(3,5)P2 (0.3 µM) on ITPC1 (left) and ITPC1-R540I (right) step currents. […] A preconditioning voltage (+80 mV, 0.1 s) was applied before voltage steps starting from −140 to 100 mV (0.5 s, ∆V = 20 mV).
# (§1) All TPC1 and TPC2 mutants were generated with a site-directed mutagenesis kit (Qiagen) using EGFP- human TPC1 and TPC2 as the templates. All constructs were confirmed by DNA sequencing.
# (§2) Whole-endolysosome recordings were performed on manually isolated enlarged endolysosomes ([Wang et al., 2012]). In brief, a patch pipette was pressed against a cell and quickly pulled away to slice the cell membrane. Enlarged endolysosomes were released into a dish and identified by monitoring EGFP-TPC1/2 or the mCherry-TPC1/2 fluorescence. After formation of a gigaseal between the patch pipette and the enlarged endolysosome, capacitance transients were compensated. Voltage steps of several hundred mVs with millisecond duration were then applied to break into the vacuolar membrane. The whole-endolysosome configuration was verified by the re-appearance of capacitance transients after break-in.
# (§3) Data were collected using an Axopatch 200A patch clamp amplifier, Digidata 1440, and pClamp 10.2 software (Axon Instruments). Whole-endolysosome currents were digitized at 10 kHz and filtered at 2 kHz. All experiments were conducted at room temperature (21–23°C), and all recordings were analyzed with pClamp 10.2, and Origin 8.0 (OriginLab, Northampton, MA). The permeability to cations (relative to PNa) was estimated based on following equations ([Lewis, 1979]) and Erev measurement under bi-ionic conditions:(1) PX/PNa=γNa/γX{[Na^+]Luminal/[X^+]Cytoplasmic}{exp([…])} (2) PCa/PNa=γNa/γCa{[Na^+]Cytoplasmic/[4[Ca^2+]Luminal}{exp(ErevF/RT)}{1+exp(ErevF/RT)} where R, T, F, Erev, and γ are, respectively, the gas constant, absolute temperature, Faraday constant, reversal potential, and activity coefficient. The liquid junction potentials were measured and corrected as described ([Neher, 1992]).
# [2] = target: T2, hTPC2 (Homo sapiens, UniProt Q8NHX9); experiment: Whole-endolysosome recordings of ITPC2; assay type: biochemical; conditions: for inactivation of ITPC2, I500ms / I10ms: @-120mV; for PX / PNa, Ca2+ / PX / PNa, K+ / PX / PNa, Na+: TPC2 WT, agonist-activated ITPC2
# T2 construct: expressed in transfected cells; host or cells: Cos1 and HEK293
# T2 sequence (Q8NHX9 whole entry): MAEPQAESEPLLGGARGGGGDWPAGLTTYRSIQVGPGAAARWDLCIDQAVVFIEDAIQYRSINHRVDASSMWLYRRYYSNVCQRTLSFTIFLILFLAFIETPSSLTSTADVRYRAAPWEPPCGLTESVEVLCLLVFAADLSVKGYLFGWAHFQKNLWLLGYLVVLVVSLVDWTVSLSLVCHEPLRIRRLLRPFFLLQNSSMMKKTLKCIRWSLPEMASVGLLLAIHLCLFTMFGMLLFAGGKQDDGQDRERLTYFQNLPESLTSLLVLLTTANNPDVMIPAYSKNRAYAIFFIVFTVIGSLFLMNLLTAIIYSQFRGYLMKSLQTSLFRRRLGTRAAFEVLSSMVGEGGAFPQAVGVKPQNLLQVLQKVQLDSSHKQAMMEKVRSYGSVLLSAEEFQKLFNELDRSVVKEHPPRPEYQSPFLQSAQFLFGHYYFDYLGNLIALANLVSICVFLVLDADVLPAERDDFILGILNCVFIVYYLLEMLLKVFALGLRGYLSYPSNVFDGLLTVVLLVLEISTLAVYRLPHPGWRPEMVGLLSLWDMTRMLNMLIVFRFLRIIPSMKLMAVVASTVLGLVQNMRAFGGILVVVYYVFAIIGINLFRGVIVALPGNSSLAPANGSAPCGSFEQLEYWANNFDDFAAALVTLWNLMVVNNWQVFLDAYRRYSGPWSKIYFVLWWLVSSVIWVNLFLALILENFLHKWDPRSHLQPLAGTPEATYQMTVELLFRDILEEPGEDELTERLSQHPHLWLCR
# [3] = system: T3, TPC2^N653G; experiment: Whole-endolysosome recordings of ITPC2-N653G; assay type: biochemical, human; conditions: TPC2 N653G, agonist-activated current
# T3 construct: expressed in transfected cells
# [4] = system: T4, hTPC1^R540I; experiment: Whole-endolysosome recordings of ITPC1-R540I; assay type: biochemical, human
# T4 construct: expressed in transfected cells; host or cells: Cos1
# [5] = system: surface-expressing mutant TRPML1 channels (TRPML1^4A); experiment: Whole-cell recordings of ITRPML1-4A; assay type: cell-based; conditions: TRPML1-4A wc; individual cells
# [6] = system: TPC1/2 DKO HAP1 cells; experiment: Whole-endolysosome recordings in TPC1/2 DKO HAP1 cells; assay type: biochemical, human
# Description: TCAs, with a general structure of an aromatic greasy core and an aliphatic chain containing a terminal amine, are lysosomotropic compounds that are known to be highly accumulating in the lysosomes due to proton trapping ([Beckmann et al., 2014]). We next tested the effects of LyNa-VAs in hTPC2-transfected Cos1 and HEK293 cells using whole-endolyosome patch-clamp.
# Data are presented as Mean ± S.E.M (n = 3 patches). […] For panels B, D and F, individual data and Mean ± S.E.M are presented. *, p<0.05; **, p<0.01; ***, p<0.001; N.S., no significance. Figure 3—source data 1. […] Figure 3—figure supplement 1. […] Both individual data points and Mean ± S.E.M are presented (n ≥ 3 patches; also see individual data in Figure 3—figure supplement 1—source data 1). Figure 3—figure supplement 1—source data 1.
# TPC1 and TPC2 CRISPR KO cells were generated in HAP1 cells using the CRISPR/Cas9 system. The TPC1 sequence (5'cttgcagtacttcagcaccc3', TPC1-sgRNA) and TPC2 sequence (5'ccccagcgtcgggctgctgc3', TPC2-sgRNA) were targeted with pSpCas9 (BB)−2A-puro vector (Addgene). HAP1 cells were co-transfected with TPC1 and TPC2-sgRNA expressing vector in the presence of Lipofectamine 2000 (In vitrogen) and selected with 2 μg/ml puromycin for 48 hr. The remaining cells were trypsinized and seeded into 96-well plate after a limiting dilution. When single cell clones were established, their genomic DNAs were extracted and amplified with following primers: TPC1-fw: 5’atggcccagacatgtgactc3’, TPC1-re: 5’ tgcctgtctccatcctctca3’; TPC2-fw: 5’tgagctgagcatgaggcaag3’, TPC2-re: 5’ aaaggacaagtggccctgag3’. The PCR amplicons were then sequenced to confirm the intended genetic disruption.
# as §2
# as §3, with “coefficient.” for “coefficient. The liquid junction potentials were measured and corrected as described ([Neher, 1992]).”
# [7] = target: T5, surface-expressing mutant TPC2 channel (TPC2^LL/AA) in HEK293 cells (Homo sapiens, UniProt Q8NHX9, L11A/L12A); experiment: Whole-cell recordings of ITPC2-LL/AA; assay type: cell-based; conditions: for current density: whole cell recordings, individual recordings
# T5 construct: expressed in transfected cells; host or cells: HEK293
# T5 sequence (Q8NHX9 whole entry L11A/L12A): as the sequence (Q8NHX9 whole entry) above, with L11A, L12A counted along it
# Description: We therefore characterized the responses of TPC2 channels to TCAs in detail using electrophysiological methods. We first performed whole-cell recordings in HEK293 cells that were transfected with surface-expressed TPC2 mutant channels (TPC2-L^11L^12-AA; abbreviated as TPC2^LL/AA hereafter).
# as §1
# Cells were transfected with Lipofectamine 2000 (Invitrogen). After culture media were refreshed 18–24 hr post-transfection, cells were used for the electrophysiological assays 24–36 hr post-transfection.
# All bath solutions were applied via a perfusion system that allowed complete solution exchange within a few seconds. […] Whole-cell currents were digitized at 10 kHz and filtered at 2 kHz.
# [8] = PI(3,5)P2 0.3 µM, LyNa-VA1.2 100 µM, LyNA1 300 µM, individual tests, listed as pip2
compound,measurement,setting,value
"PI(3,5)P2",effect on whole-endolysosome ITPC1 (in words),[1],large enhancement at negative potentials
same,voltage dependence of TPC2 activation (in words),[2],voltage independent; also recorded: no apparent voltage-dependent activation
same,"inactivation of ITPC2, I500ms / I10ms",[2]; [8],1.002 and 0.9763 and 0.9931 and 0.9868
same,"inactivation of ITPC2, I500ms / I10ms",[2]; mean,0.9895
same,"Rectification index of ITPC2, I+80mV/I-80mV",[2]; [8],0.8422 and 1.096 and 1.053 and 1.001
same,"Rectification index of ITPC2, I+80mV/I-80mV","[2]; PI(3,5)P2 0.3 µM, LyNa-VA1.2 100 µM, LyNA1 300 µM, mean",1.00 ± 0.06
same,"Rectification index of ITPC2, I+80mV/I-80mV","[2]; PI(3,5)P2 0.3 µM, LyNa-VA1.2 100 µM, LyNA1 300 µM, mean, listed as pip2",0.9981
same,"PX / PNa, Ca2+",[2]; individual,0.016 and 0.034
same,"PX / PNa, K+",[2]; individual,0.02921 and 0.09237 and 0.08877 and 0.01887
same,"PX / PNa, Na+",[2]; individual,0.9921 and 1.104 and 1
same,"PX / PNa, Ca2+",[2]; mean,0.022
same,"PX / PNa, K+",[2]; mean,0.05731
same,"PX / PNa, Na+",[2]; mean,1.032
same,activation of whole-endolysosome ITPC2 (in words),"[2]; bath application, symmetric Na^+",activated a large whole-endolysosome ITPC2 with linear I-V
same,I@500ms/I@10ms (current decline at steady state),"[2]; voltage-step protocols, at all potentials",~1.0
same,"PX / PNa, K+",[3]; individual,0.5092 and 0.6027 and 0.4961 and 0.3927
same,"PX / PNa, K+",[3]; mean,0.5002
same,effect on ITPC1-R540I (in words),[4],large currents at all potentials
ML-SA1,"current, whole-cell ITRPML1-4A",[5],4274.3 pA and 5928.6 pA
same,activation of ITRPML1 in TPC1/2 DKO cells (in words),[6],readily activated ITRPML1
"CN(C)CCCN1c2ccccc2Sc2ccc(Cl)cc21 [LyNa-VA2.1, Chlorpromazine]",effect on whole-endolysosome ITPC1 (in words),[1],inhibited ITPC1
same,"Dose-dependent inhibition of TPC1 (ITPC1, value at 0 µM = 1)","[1]; 3 µM, individual patches",0.9084 and 0.9958 and 1.027
same,"Dose-dependent inhibition of TPC1 (ITPC1, value at 0 µM = 1)","[1]; 3 µM, mean",0.9772
same,"Dose-dependent inhibition of TPC1 (ITPC1, value at 0 µM = 1)","[1]; 10 µM, individual patches",0.8547 and 1.003 and 0.8763
same,"Dose-dependent inhibition of TPC1 (ITPC1, value at 0 µM = 1)","[1]; 10 µM, mean",0.9114
same,"Dose-dependent inhibition of TPC1 (ITPC1, value at 0 µM = 1)","[1]; 30 µM, individual patches",0.8617 and 0.806 and 0.5194
same,"Dose-dependent inhibition of TPC1 (ITPC1, value at 0 µM = 1)","[1]; 30 µM, mean",0.729
same,"Dose-dependent inhibition of TPC1 (ITPC1, value at 0 µM = 1)","[1]; 100 µM, individual patches",0.4994 and 0.4103 and 0.291
same,"Dose-dependent inhibition of TPC1 (ITPC1, value at 0 µM = 1)","[1]; 100 µM, mean",0.4003
same,"Dose-dependent inhibition of TPC1 (ITPC1, value at 0 µM = 1)","[1]; 300 µM, individual patches",0.197 and 0.08086 and 0.1214
same,"Dose-dependent inhibition of TPC1 (ITPC1, value at 0 µM = 1)","[1]; 300 µM, mean",0.1331
same,IC50,"[1]; whole-endolysosome, n = 3 patches, read-out: IC50, inhibition of TPC1",77 ± 2 µM
same,ITPC2,[2]; whole endolysosome recordings with 100 µM of LyNa-VAs at −120 mV,1101 ± 508 pA
same,activation of whole-cell ITPC2-LL/AA (in words),"[7]; bath application, symmetric Na^+, 100 µM where stated",ITPC2 was evoked
same,current density,[7]; 5 µM,7.8 pA/pF
same,current density,[7]; 10 µM,11.2294 pA/pF and 9.959 pA/pF and 11.6261 pA/pF and 6.052 pA/pF
same,current density,[7]; 20 µM,17.6973 pA/pF and 20.0248 pA/pF and 34.5739 pA/pF and 9.104 pA/pF
same,current density,[7]; 50 µM,54.3211 pA/pF and 69.6612 pA/pF and 69.313 pA/pF and 27.4087 pA/pF
same,current density,[7]; 100 µM,137.55 pA/pF and 140.785 pA/pF and 150.409 pA/pF and 87.5478 pA/pF
same,current density,[7]; 200 µM,152.165 pA/pF and 168.074 pA/pF and 117.748 pA/pF
same,EC50,"[7]; whole-cell recordings at −140 mV, TPC2^LL/AA-transfected HEK293 cells, read-out: EC50",60 ± 2 µM

# Reference: article PMC6905855, “Agonist-specific voltage-dependent gating of lysosomal two-pore Na^+ channels” (eLife, 2019)
